Measured values taken from patent US9492436B2, “Azabenzimidazole derivatives” (Boehringer Ingelheim International GmbH, priority 2013, dated 2016).

What follows are compounds tested against T1, AMPK complex 1 (containing alpha1beta1gamma1) (Homo sapiens, UniProt Q13131+Q9Y478) (assay: In vitro AMPK activation assay (ADP-Glo Kinase Assay)). Conditions: 30 μM ATP, 1 μM peptide, 60 min, room temperature.
T1 construct: GST (Glutathion S transferase) (N); made in house; host or cells: baculovirus; virus made in Sf9, expression in High Five cells
T1 sequence (Q13131 whole entry): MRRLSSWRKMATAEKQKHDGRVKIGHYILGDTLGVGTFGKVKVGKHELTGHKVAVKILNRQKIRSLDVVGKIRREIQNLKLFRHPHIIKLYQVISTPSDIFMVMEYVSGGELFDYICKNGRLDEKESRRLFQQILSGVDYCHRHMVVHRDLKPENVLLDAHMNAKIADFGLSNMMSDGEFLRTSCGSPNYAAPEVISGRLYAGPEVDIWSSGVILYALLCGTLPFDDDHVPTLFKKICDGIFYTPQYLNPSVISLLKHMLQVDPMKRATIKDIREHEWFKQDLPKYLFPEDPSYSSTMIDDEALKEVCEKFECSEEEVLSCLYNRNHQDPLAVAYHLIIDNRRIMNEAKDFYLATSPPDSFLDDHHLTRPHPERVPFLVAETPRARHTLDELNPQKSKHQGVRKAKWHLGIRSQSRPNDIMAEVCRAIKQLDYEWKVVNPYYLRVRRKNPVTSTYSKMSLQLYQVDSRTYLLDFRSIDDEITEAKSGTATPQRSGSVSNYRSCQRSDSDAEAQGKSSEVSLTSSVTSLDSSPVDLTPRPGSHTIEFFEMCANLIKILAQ
T1 sequence (Q9Y478 whole entry): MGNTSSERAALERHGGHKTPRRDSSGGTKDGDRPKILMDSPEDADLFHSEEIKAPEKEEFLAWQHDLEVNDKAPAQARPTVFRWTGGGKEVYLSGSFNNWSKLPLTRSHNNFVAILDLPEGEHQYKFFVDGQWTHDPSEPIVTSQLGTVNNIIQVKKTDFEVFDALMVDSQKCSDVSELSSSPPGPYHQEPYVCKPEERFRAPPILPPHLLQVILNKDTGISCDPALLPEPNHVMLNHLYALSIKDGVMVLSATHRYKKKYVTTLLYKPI
T1 sequence (P54619 whole entry partner): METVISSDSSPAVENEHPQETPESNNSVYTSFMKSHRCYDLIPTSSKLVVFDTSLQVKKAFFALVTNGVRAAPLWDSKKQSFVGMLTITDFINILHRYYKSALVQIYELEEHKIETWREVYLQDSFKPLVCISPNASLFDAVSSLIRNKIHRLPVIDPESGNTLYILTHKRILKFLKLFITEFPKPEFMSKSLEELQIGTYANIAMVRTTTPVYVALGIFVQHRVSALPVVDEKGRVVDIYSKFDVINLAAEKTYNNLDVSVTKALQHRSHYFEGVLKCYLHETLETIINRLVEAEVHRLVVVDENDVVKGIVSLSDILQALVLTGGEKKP
Type: biochemical
Source text: Activated AMPK complex 1 (containing alpha1beta1gamma1) was obtained from baculovirus expression system. The gene encoding AMPK alpha1 was cloned into the pACG2T vector (BD Biosciences) to obtain a N-terminal Glutathion S transferase (GST)-fusion protein. The genes encoding AMPK beta 1 and gamma1 were cloned into the p2Bac dual multiple cloning site vector (Invitrogen) with beta1 under the control of the p10 promoter and gamma1 under the control of the PH promoter. The transfer vectors containing AMPK were co-transfected individually with AcPNV BacMagic-3 DNA (EMD Millipore) in Sf9 cells and the recombinant baculoviruses were harvested after 5 days, followed by 3 rounds of amplification of the virus stock in Sf9 cells. AMPK (alpha1beta1gamma1) was expressed in High Five 5 cells by co-infection of recombinant alpha1 virus and recombinant beta1/gamma1 virus for 72 h at 27° C. Cells were harvested by centrifugation and lysed by 3 freeze/thaw cycles in PBS with 10% glycerol and protease inhibitor cocktail (Roche). After centrifugation AMPK a1b1g1 in the supernatant was captured by immobilized glutathione (GE Healthcare), impurities were washed away with PBS and AMPK alpha1beta1gamma1 was eluted with PBS containing 20 mM reduced gluthathione. The protein buffer was then exchanged to PBS with 10% glycerol and protein concentration was determined by UV absorbance.
The white 384-well Optiplates (cat.no. 6007299) were purchased from PerkinElmer. The V9101 ADP-Glo Kinase Assay and ultra pure ATP (V915A) was purchased from Promega. The substrate for AMPK (NH2-HMRSAMSGLHLVKRR_CONH2) was purchased from Upstate (12-355).
Compounds were tested in either serial dilutions or single dose concentrations. The serial compound dilutions were prepared in 100% DMSO automatically. The final DMSO concentration in the assay was 0.1%.
The Compound Stock Solutions were 10 mM in 100% DMSO. The compounds were solubilised at room temperature.
In the 384-well plates 1.25 ul of test compound in assay buffer was mixed with 1.25 ul of AMPK and 1.25 μl of the peptide (final concentration of 1 μM) and 1.25 μl of ATP (final concentration of 30 μM), both dissolved in assay buffer. This step was followed by an incubation time of 60 min. Then 5 μl of ADP Glo Reagent was added. This was followed by 40 min of incubation. Then 10 μl of Kinase Detection Reagent was admixed. The plates were sealed and after an incubation period of 30 min, the luminescence signal was measured in an Envision reader. All incubation steps were accomplished at room temperature.
Each assay microtiter plate contained wells with vehicle controls instead of compound (0.1% DMSO in water) as reference for the low signal (100% CTL, low signal), and wells with serial dilutions of AMP (final 30 μM) as reference for high signals.
The luminescence signal generated was proportional to the ADP concentration produced and was correlated with AMPK activity. The analysis of the data was performed by the calculation of the percentage of ATP consumption of AMPK in the presence of the test compound compared to the consumption of ATP in the presence of AMPK without compound. (RLU(sample)/RLU(low control))*100[RLU=relative luminescence units]
An activator of the AMPK enzyme gave values above 100% CTL.
EC50 values based on dose response curves are calculated with the XIFIT software using the 4 Parameter Logistic Model or Sigmoidal Dose-Response Model.
In the case of `N=S1(=O)CCC(c2ccc(-c3nc4[nH]c(O[C@@H]5CO[C@H]6[C@@H]5OC[C@H]6O)nc4cc3Cl)cc2)CC1` (single isomer, unassigned) [Example 54], the EC50 is reported as 114 nM.
In the case of `N=S1(=O)CCC(c2ccc(-c3nc4[nH]c(O[C@@H]5CO[C@H]6[C@@H]5OC[C@H]6O)nc4cc3Cl)cc2)CC1` (single isomer, unassigned) [Example 55], the EC50 is reported as 26 nM.
Work on `CS(C)(=O)=Nc1ccc(-c2nc3[nH]c(O[C@@H]4CO[C@H]5[C@@H]4OC[C@H]5O)nc3cc2Cl)cc1` [Example 1] yielded an EC50 of 275 nM.
`CS(C)(=O)=NC(=O)c1ccc(-c2nc3[nH]c(O[C@@H]4CO[C@H]5[C@@H]4OC[C@H]5O)nc3cc2Cl)cc1` [Example 3] was tested, and the EC50 was 402 nM.
`N=S1(=O)CCN(c2ccc(-c3nc4[nH]c(O[C@@H]5CO[C@H]6[C@@H]5OC[C@H]6O)nc4cc3Cl)cc2)CC1` [Example 4] was tested, and the EC50 was 22 nM.
`CN=S1(=O)CCN(c2ccc(-c3nc4[nH]c(O[C@@H]5CO[C@H]6[C@@H]5OC[C@H]6O)nc4cc3Cl)cc2)CC1` [Example 5] gave an EC50 of 62 nM.
For `CS(C)(=O)=NC(=O)c1ccc(-c2ccc(-c3nc4[nH]c(O[C@@H]5CO[C@H]6[C@@H]5OC[C@H]6O)nc4cc3Cl)cc2)cc1` [Example 6, N-4′-(6-Chloro-2-((3R,3aR,6R,6aR)-6-hydroxyhexahydrofuro[3,2-b]furan-3-yloxy)-3H-imidazo[4,5-b]pyridin-5-yl)biphenyl-4-carbonyl-S,S-dimethylsulfoximide], the EC50 was 2 nM.
`O=S1(=Nc2ccc(-c3ccc(-c4nc5[nH]c(O[C@@H]6CO[C@H]7[C@@H]6OC[C@H]7O)nc5cc4Cl)cc3)cc2)CCCC1` [Example 8, (3R,3aR,6R,6aR)-6-{6-Chloro-5-[4′-(1-oxo-tetrahydro-1λ4-thiophen-1-ylideneamino)-biphenyl-4-yl]-3H-imidazo[4,5-b]pyridin-2-yloxy}-hexahydro-furo[3,2-b]furan-3-ol] gave an EC50 of 4 nM.
`C[S@@](=O)(=Nc1ccc(-c2nc3[nH]c(O[C@@H]4CO[C@H]5[C@@H]4OC[C@H]5O)nc3cc2Cl)cc1)c1ccccc1` [Example 9, (S)-N-(4-(6-Chloro-2-((3R,3aR,6R,6aR)-6-hydroxyhexahydrofuro[3,2-b]furan-3-yloxy)-3H-imidazo[4,5-b]pyridin-5-yl)phenyl)-S-methyl-S-phenylsulfoximide] showed an EC50 of 14 nM.
`CCS(=O)(CC)=Nc1ccc(-c2ccc(-c3nc4[nH]c(O[C@@H]5CO[C@H]6[C@@H]5OC[C@H]6O)nc4cc3Cl)cc2)cc1` [Example 11, N-(4′-(6-Chloro-2-((3R,3aR,6R,6aR)-6-hydroxyhexahydrofuro[3,2-b]furan-3-yloxy)-3H-imidazo[4,5-b]pyridin-5-yl)biphenyl-4-yl)-S,S-diethylsulfoximide] gave an EC50 of 3 nM.
Work on `C[S@](=O)(=Nc1ccc(-c2nc3[nH]c(O[C@@H]4CO[C@H]5[C@@H]4OC[C@H]5O)nc3cc2Cl)cc1)c1ccccc1` [Example 12, (R)-N-(4-(6-Chloro-2-((3R,3aR,6R,6aR)-6-hydroxyhexahydrofuro[3,2-b]furan-3-yloxy)-3H-imidazo[4,5-b]pyridin-5-yl)phenyl)-S-methyl-S-phenylsulfoximide] yielded an EC50 of 581 nM.
With `CCS(C)(=O)=Nc1ccc(-c2ccc(-c3nc4[nH]c(O[C@@H]5CO[C@H]6[C@@H]5OC[C@H]6O)nc4cc3Cl)cc2)cc1` (stereo partly drawn) [Example 13, N-(4′-(6-Chloro-2-((3R,3aR,6R,6aR)-6-hydroxyhexahydrofuro[3,2-b]furan-3-yloxy)-3H-imidazo[4,5-b]pyridin-5-yl)biphenyl-4-yl)-S-ethyl-S-methylsulfoximide] the EC50 was 4 nM.
`CS(C)(=O)=Nc1cccc(-c2ccc(-c3nc4[nH]c(O[C@@H]5CO[C@H]6[C@@H]5OC[C@H]6O)nc4cc3Cl)cc2)c1` [Example 14, N-(4′-(6-Chloro-2-((3R,3aR,6R,6aR)-6-hydroxyhexahydrofuro[3,2-b]furan-3-yloxy)-3H-imidazo[4,5-b]pyridin-5-yl)biphenyl-3-yl)-S,S-dimethylsulfoximide] gave an EC50 of 6 nM.
`CS(=O)(=Nc1ccc(-c2ccc(-c3nc4[nH]c(O[C@@H]5CO[C@H]6[C@@H]5OC[C@H]6O)nc4cc3Cl)cc2)cc1)C1CC1` (stereo partly drawn) [Example 15, N-(4′-(6-Chloro-2-((3R,3aR,6R,6aR)-6-hydroxyhexahydrofuro[3,2-b]furan-3-yloxy)-3H-imidazo[4,5-b]pyridin-5-yl)biphenyl-4-yl)-S-cyclopropyl-S-methylsulfoximide] showed an EC50 of 41 nM.
`C[S@@](=O)(=NC(=O)c1ccc(-c2nc3[nH]c(O[C@@H]4CO[C@H]5[C@@H]4OC[C@H]5O)nc3cc2Cl)cc1)c1ccccc1` [Example 16, (S)-N-4-(6-Chloro-2-((3R,3aR,6R,6aR)-6-hydroxyhexahydrofuro[3,2-b]furan-3-yloxy)-3H-imidazo[4,5-b]pyridin-5-yl)benzoyl-S-methyl-5-phenylsulfoximine] gave an EC50 of 245 nM.
`CS(C)(=N)=Nc1ccc(-c2ccc(-c3nc4[nH]c(O[C@@H]5CO[C@H]6[C@@H]5OC[C@H]6O)nc4cc3Cl)cc2)cc1` [Example 17, N-(4′-(6-Chloro-2-((3R,3aR,6R,6aR)-6-hydroxyhexahydrofuro[3,2-b]furan-3-yloxy)-3H-imidazo[4,5-b]pyridin-5-yl)biphenyl-4-yl)-S,S-dimethyl-sulfondiimine] was tested, and the EC50 was 1 nM.
Compound `CC(C)S(C)(=O)=Nc1ccc(-c2ccc(-c3nc4[nH]c(O[C@@H]5CO[C@H]6[C@@H]5OC[C@H]6O)nc4cc3Cl)cc2)cc1` (stereo partly drawn) [Example 18, N-(4′-(6-Chloro-2-((3R,3aR,6R,6aR)-6-hydroxyhexahydrofuro[3,2-b]furan-3-yloxy)-3H-imidazo[4,5-b]pyridin-5-yl)biphenyl-4-yl)-S-isopropyl-S-methylsulfoximide] has an EC50 of 34 nM.
`CS(=O)(=NC(=O)c1ccc(-c2nc3[nH]c(O[C@@H]4CO[C@H]5[C@@H]4OC[C@H]5O)nc3cc2Cl)cc1)c1cccnc1` (stereo partly drawn) [Example 19, N-4-(6-Chloro-2-((3R,3aR,6R,6aR)-6-hydroxyhexahydrofuro[3,2-b]furan-3-yloxy)-3H-imidazo[4,5-b]pyridin-5-yl)benzoyl-S-methyl-S-(pyridin-3-yl)-sulfoximine] showed an EC50 of 55 nM.
For `CS(=O)(=NC(=O)c1ccc(-c2nc3[nH]c(O[C@@H]4CO[C@H]5[C@@H]4OC[C@H]5O)nc3cc2Cl)cc1)C1CCOCC1` (stereo partly drawn) [Example 20, N-4-(6-Chloro-2-((3R,3aR,6R,6aR)-6-hydroxyhexahydrofuro[3,2-b]furan-3-yloxy)-3H-imidazo[4,5-b]pyridin-5-yl)benzoyl-S-methyl-S-(tetrahydro-2H-pyran-4-yl)-sulfoximine], the EC50 was 776 nM.
`O=C(N=S1(=O)CCOCC1)c1ccc(-c2nc3[nH]c(O[C@@H]4CO[C@H]5[C@@H]4OC[C@H]5O)nc3cc2Cl)cc1` [Example 21, 4-[6-Chloro-2-((3R,3aR,6R,6aR)-6-hydroxy-hexahydro-furo[3,2-b]furan-3-yloxy)-3H-imidazo[4,5-b]pyridin-5-yl]-N-(4-oxo-4λ6-[1,4]oxathian-4-ylidene)-benzamide] was tested, and the EC50 was 43 nM.
`O=C(N=S1(=O)CCCCC1)c1ccc(-c2nc3[nH]c(O[C@@H]4CO[C@H]5[C@@H]4OC[C@H]5O)nc3cc2Cl)cc1` [Example 24, 4-[6-Chloro-2-((3R,3aR,6R,6aR)-6-hydroxy-hexahydro-furo[3,2-b]furan-3-yloxy)-3H-imidazo[4,5-b]pyridin-5-yl]-N-(1-oxo-hexahydro-1λ6-thiopyran-1-ylidene)-benzamide] gave an EC50 of 215 nM.
